Reference: patent publication US8673915B2, “P 2×4 receptor antagonist” (Nippon Chemiphar Co., Ltd., priority 2010, dated 2014)
Where a name gives a salt, the structure may show the parent alone.

target: T1, P2X4 receptor (Homo sapiens, UniProt Q99571); assay: Intracellular calcium assay (Fura-2 AM) of ATP-induced calcium influx in 1321N1 cells stably expressing human P2X4 receptors; format: cell-based; conditions: Table 25, Example 30; 1321N1 cells expressing human P2X4; compounds added 15 minutes before ATP; Fura-2 340/380 nm ratio; read-out: IC50 (P2X4 receptor antagonism)
T1 sequence (Q99571 1-388): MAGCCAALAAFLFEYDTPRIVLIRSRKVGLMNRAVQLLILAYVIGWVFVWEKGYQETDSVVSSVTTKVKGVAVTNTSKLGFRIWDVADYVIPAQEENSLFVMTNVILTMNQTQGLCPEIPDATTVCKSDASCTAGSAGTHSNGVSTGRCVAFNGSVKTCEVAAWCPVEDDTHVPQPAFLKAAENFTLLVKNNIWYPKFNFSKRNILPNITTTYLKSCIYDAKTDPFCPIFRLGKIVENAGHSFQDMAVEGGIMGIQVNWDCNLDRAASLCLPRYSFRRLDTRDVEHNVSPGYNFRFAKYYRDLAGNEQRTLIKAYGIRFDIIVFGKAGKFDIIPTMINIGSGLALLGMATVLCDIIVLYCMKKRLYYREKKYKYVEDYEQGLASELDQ
Procedure: 1321N1 cells stably expressing human P2X4 receptors were plated in 96-well assay plate and cultured 24 hours at 37° C. in an atmosphere of 5% CO2 for intracellular calcium assay. Fura-2 AM calcium fluorescent indicator was used for the intracellular calcium assay. Fura-2 AM was dissolved in an assay buffer, and the solution was loaded onto cells. The obtained plate was used for fluorescent assay. Test compounds were treated to cells 15 minutes before the addition of ATP, and the response to intracellular calcium influx induced by addition of ATP was monitored by a micro plate reader. The fluorescence ratio of excitations wavelengths of 340 nm and 380 nm was used as the index of intracellular calcium change. The inhibition activities of the test compounds were calculated by comparison with the absence of the test compound (control).
P2X4 receptor antagonism of the compound of the present invention was measured as described below.
P2X4 receptor antagonism of the compound of the present invention was measured in the same manner as in Example 30.

SMILES	IC50
O=c1[nH]c2c3ccccc3ccc2n(-c2cccc(-c3nnn[nH]3)c2)c1=O [Example 2, 4-[3-(1H-Tetrazol-5-yl)phenyl]-1,4-dihydrobenzo[f]quinoxaline-2,3-dione sodium salt]	460 nM
COc1cccc(-n2c(=O)c(=O)[nH]c3c4ccccc4ccc32)c1 [Example 3, 4-(3-Methoxyphenyl)-1,4-dihydrobenzo[f]quinoxaline-2,3-dione]	6600 nM
Nc1cccc(-n2c(=O)c(=O)[nH]c3c4c(ccc32)CCCC4)c1 [Example 7, 4-(3-Aminophenyl)-1,4,7,8,9,10-hexahydrobenzo[f]quinoxaline-2,3-dione hydrochloride]	5100 nM
O=c1[nH]c2c3c(ccc2n(-c2cccc(NS(=O)(=O)c4ccccc4[N+](=O)[O-])c2)c1=O)CCCC3 [Example 9, N-[3-(2,3-Dioxo-2,3,7,8,9,10-hexahydrobenzo[f]quinoxalin-4(1H)-yl)phenyl]-2-nitrobenzenesulfonamide]	2100 nM

same assay, conditions: Table 26, Example 31; same manner as in Example 30; read-out: IC50 (P2X4 receptor antagonism)

SMILES	IC50
Nc1cccc(-n2c(=O)c(=O)[nH]c3c4ccccc4ccc32)c1 [Example 13, 4-(3-Aminophenyl)-1,4-dihydrobenzo[f]quinoxaline-2,3-dione hydrochloride]	2100 nM
O=C(Cc1ccccc1I)Nc1cccc(-n2c(=O)c(=O)[nH]c3c4ccccc4ccc32)c1 [Example 14, 4-[3-[(2-Iodophenylacetyl)amino]phenyl)-1,4-dihydrobenzo[f]quinoxaline-2,3-dione]	880 nM
Cc1nnc(-c2cccc(-n3c(=O)c(=O)[nH]c4c5ccccc5ccc43)c2)o1 [Example 15, 4-[3-(5-Methyl-[1,3,4]oxadiazol-2-yl)phenyl]-1,4-dihydrobenzo[f]quinoxaline-2,3-dione]	6700 nM
O=c1[nH]c2c3ccccc3ccc2n(-c2ccc(O)cc2)c1=O [Example 17, 4-(4-Hydroxyphenyl)-1,4-dihydrobenzo[f]quinoxaline-2,3-dione sodium salt]	2700 nM
Nc1ccc(-n2c(=O)c(=O)[nH]c3c4ccccc4ccc32)cc1 [Example 18, 4-(4-Aminophenyl)-1,4-dihydrobenzo[f]quinoxaline-2,3-dione hydrochloride]	5700 nM
O=C(Nc1cccc(-n2c(=O)c(=O)[nH]c3c4c(ccc32)CCCC4)c1)c1ccccc1C(F)(F)F [Example 21]	7700 nM
O=c1[nH]c2c3c(ccc2n(-c2cccc(NS(=O)(=O)c4ccccc4)c2)c1=O)CCCC3 [Example 22, N-[3-(2,3-Dioxo-2,3,7,8,9,10-hexahydro-1H-benzo[f]quinoxalin-4-yl)phenyl]benzenesulfonamide]	800 nM
O=c1[nH]c2c3c(ccc2n(-c2cccc(NS(=O)(=O)c4cccc(Br)c4)c2)c1=O)CCCC3 [Example 23, 3-Bromo-N-[3-(2,3-dioxo-2,3,7,8,9,10-hexahydro-1H-benzo[f]quinoxalin-4-yl)phenyl]benzenesulfonamide]	1300 nM
O=c1[nH]c2c3c(ccc2n(-c2cccc(NS(=O)(=O)c4cccc5ccccc45)c2)c1=O)CCCC3 [Example 24, N-[3-(2,3-Dioxo-2,3,7,8,9,10-hexahydro-1H-benzo[f]quinoxalin-4-yl)phenyl]-1-naphthalenesulfonamide]	2600 nM
O=c1[nH]c2c3c(ccc2n(-c2cccc(NS(=O)(=O)c4cccs4)c2)c1=O)CCCC3 [Example 26, N-[3-(2,3-Dioxo-2,3,7,8,9,10-hexahydro-1H-benzo[f]quinoxalin-4-yl)phenyl]-2-thiophenesulfonamide]	1800 nM
O=c1[nH]c2c3c(ccc2n(-c2cccc(NS(=O)(=O)c4cccnc4)c2)c1=O)CCCC3 [Example 27, N-[3-(2,3-Dioxo-2,3,7,8,9,10-hexahydro-1H-benzo[f]quinoxalin-4-yl)phenyl]-3-pyridinesulfonamide hydrochloride]	3000 nM
O=c1[nH]c2c3c(ccc2n(-c2cccc(NS(=O)(=O)c4cccc5cccnc45)c2)c1=O)CCCC3 [Example 28, N-[3-(2,3-Dioxo-2,3,7,8,9,10-hexahydro-1H-benzo[f]quinoxalin-4-yl)phenyl]-8-quinolinesulfonamide hydrochloride]	1900 nM

target: T1, P2X4 receptor; assay: not given; conditions: disclosed in Non-patent document 8; cited from earlier work

SMILES	P2X4 receptor antagonism
Fc1ccc([C@@H]2CCNC[C@H]2COc2ccc3c(c2)OCO3)cc1 [Paroxetine]	shows P2X4 receptor antagonism
